Assay results taken from patent US9062041B2 (Bayer Intellectual Property GmbH, priority 2011, dated 2015).

Key:
Type in all cases: cell-based
[1] = target: EP2 subtype of the human PGE2 receptor (Homo sapiens, UniProt P43116); experiment: cAMP antagonism test on the human EP2 receptor (HTRF cAMP detection); settings: hEP2 receptor, read-out: Antagonism hEP2 IC50
In short: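 Read-out is a competitive HTRF for cAMP: lysate cAMP displaces cAMP-d2 from Eu cryptate-labelled antibody, and antagonism raises the 665/620 nm ratio. Compound (0.8 nM–16.5 μM) added to EP2 cells 20 min at RT before 60 min PGE2 challenge (3× stock 1.5 nM) with IBMX, followed by 20 min lysis.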

[2] = target: EP4 subtype of the human PGE2 receptor (Homo sapiens, UniProt P35408); experiment: cAMP antagonism test on the human EP4 receptor (HTRF cAMP detection); settings: selectivity towards hEP4, IC50 measured by cAMP antagonism test
In short: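 Competitive HTRF cAMP read-out (cAMP-d2 vs Eu-cryptate anti-cAMP antibody, 665/620 nm ratio) on lysed human EP4 cells. Compound (0.8 nM–16.5 μM) applied 20 min at RT before 60 min PGE2 challenge (3× solution 0.3 nM, IBMX present); 20 min lysis precedes reading.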

[3] = target: T1, human PGD receptor (Homo sapiens, UniProt Q13258); experiment: cAMP antagonism test on the human prostaglandin D receptor (HTRF cAMP detection); settings: selectivity towards hDP, IC50 measured by cAMP antagonism test
T1 sequence (Q13258 1-359): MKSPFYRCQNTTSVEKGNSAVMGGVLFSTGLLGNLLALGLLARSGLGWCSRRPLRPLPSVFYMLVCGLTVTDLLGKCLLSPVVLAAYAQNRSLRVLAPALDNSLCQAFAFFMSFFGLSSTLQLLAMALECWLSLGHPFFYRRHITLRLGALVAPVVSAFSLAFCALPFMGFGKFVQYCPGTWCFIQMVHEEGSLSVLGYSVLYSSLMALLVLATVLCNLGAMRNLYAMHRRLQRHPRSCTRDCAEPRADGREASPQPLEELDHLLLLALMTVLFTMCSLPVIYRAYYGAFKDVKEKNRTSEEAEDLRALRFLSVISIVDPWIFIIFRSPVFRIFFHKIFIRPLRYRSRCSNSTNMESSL
In short: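 HTRF competition read-out (665/620 nm ratio ×10000), where higher FRET means less cAMP, i.e. antagonism. Compounds (0.8 nM–16.5 μM) were preincubated 20 min at RT with cells and cAMP-d2, PGD2 (3× solution, 6 nM) in IBMX-containing PBS added for 30 min at RT, then cells lysed 20 min.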

Sequence of EP4 subtype of the human PGE2 receptor (P35408 whole entry): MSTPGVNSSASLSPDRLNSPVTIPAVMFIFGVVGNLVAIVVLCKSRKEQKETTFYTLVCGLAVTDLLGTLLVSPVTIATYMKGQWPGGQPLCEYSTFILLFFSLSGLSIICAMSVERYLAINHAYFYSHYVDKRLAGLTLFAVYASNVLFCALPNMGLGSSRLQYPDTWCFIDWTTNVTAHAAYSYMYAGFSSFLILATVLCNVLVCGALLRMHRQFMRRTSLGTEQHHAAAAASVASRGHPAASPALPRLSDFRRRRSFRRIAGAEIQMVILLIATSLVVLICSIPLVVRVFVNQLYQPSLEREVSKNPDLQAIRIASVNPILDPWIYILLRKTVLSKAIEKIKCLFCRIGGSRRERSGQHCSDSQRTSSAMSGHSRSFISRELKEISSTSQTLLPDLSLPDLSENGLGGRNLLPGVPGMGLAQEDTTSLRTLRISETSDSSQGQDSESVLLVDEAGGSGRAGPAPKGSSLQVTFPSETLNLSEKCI
Sequence of EP2 subtype of the human PGE2 receptor (P43116 whole entry): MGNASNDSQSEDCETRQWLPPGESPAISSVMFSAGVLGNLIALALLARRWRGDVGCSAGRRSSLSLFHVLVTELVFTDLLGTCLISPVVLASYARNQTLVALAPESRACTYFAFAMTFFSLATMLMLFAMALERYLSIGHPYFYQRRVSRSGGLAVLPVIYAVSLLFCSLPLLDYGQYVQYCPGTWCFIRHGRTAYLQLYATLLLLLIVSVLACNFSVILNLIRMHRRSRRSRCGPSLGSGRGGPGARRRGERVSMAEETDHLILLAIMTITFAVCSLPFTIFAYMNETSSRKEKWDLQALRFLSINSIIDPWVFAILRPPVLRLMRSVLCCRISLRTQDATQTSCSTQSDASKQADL

Row | IC50 [1] [nM] | Selectivity hEP2/hEP4 [2] | Selectivity hEP2/hDP [3] | SMILES
1 | 51.9 | xxx (xxx > 100) | xxx (xxx > 100) | COCCNC(=O)c1cc2cn(CC3CN(C(=O)c4ccc(C(F)(F)F)cc4)C3)nc2cc1C [Example 186, N-(2-methoxyethyl)-6-methyl-2-({1-[4-(trifluoromethyl)benzoyl]azetidin-3-yl}methyl)-2H-indazol-5-carboxamide]
2 | 23.5 | xxx (xxx > 100) | xxx (xxx > 100) | Cc1cc2nn(CC3CN(C(=O)c4ccc(S(F)(F)(F)(F)F)cc4)C3)cc2cc1C(=O)NCCSC(F)(F)F [Example 187, 6-methyl-2-({1-[4-(pentafluoro-λ^6-sulphanyl)benzoyl]azetidin-3-yl}methyl)-N-{2-[(trifluoromethyl)sulphanyl]ethyl}-2H-indazol-5-carboxamide]
3 | 149 | xxx (xxx > 100) | xxx (xxx > 100) | Cc1cc2nn(CC3CN(C(=O)c4ccc(S(F)(F)(F)(F)F)cc4)C3)cc2cc1C(=O)NCC(F)(F)F [Example 188, 6-methyl-2-({1-[4-(pentafluoro-λ^6-sulphanyl)benzoyl]azetidin-3-yl}methyl)-N-(2,2,2-trifluoroethyl)-2H-indazol-5-carboxamide]
4 | 33.6 | xxx (xxx > 100) | xxx (xxx > 100) | Cc1cc2nn(CC3CN(C(=O)c4ccc(Cl)cc4)C3)cc2cc1C(=O)NCCSC(F)(F)F [Example 189, 2-{[1-(4-chlorobenzoyl)azetidin-3-yl]methyl}-6-methyl-N-{2-[(trifluoromethyl)sulphanyl]ethyl}-2H-indazol-5-carboxamide]
5 | 272 | xx (xx: 10-100) | xx (xx: 10-100) | Cc1cc2nn(CC3CN(C(=O)c4ccc(Cl)cc4)C3)cc2cc1C(=O)NCC(F)(F)F [Example 190, 2-{[1-(4-chlorobenzoyl)azetidin-3-yl]methyl}-6-methyl-N-(2,2,2-trifluoroethyl)-2H-indazol-5-carboxamide]
6 | 40.9 | xxx (xxx > 100) | xxx (xxx > 100) | Cc1cc2nn(CC3CN(C(=O)c4ccc(OC(F)(F)F)cc4)C3)cc2cc1C(=O)NCCSC(F)(F)F [Example 194, 6-methyl-2-({1-[4-(trifluoromethoxy)benzoyl]azetidin-3-yl}methyl)-N-{2-[(trifluoromethyl)sulphanyl]ethyl}-2H-indazol-5-carboxamide]
7 | 227 | xx (xx: 10-100) | xx (xx: 10-100) | Cc1cc2nn(CC3CN(C(=O)c4ccc(OC(F)(F)F)cc4)C3)cc2cc1C(=O)NCC(F)(F)F [Example 195, 6-methyl-N-(2,2,2-trifluoroethyl)-2-({1-[4-(trifluoromethoxy)benzoyl]azetidin-3-yl}methyl)-2H-indazol-5-carboxamide]
8 | 50.8 | xxx (xxx > 100) | xxx (xxx > 100) | Cc1cc2nn(CC3CN(C(=O)c4ccc(OC(F)(F)F)cc4)C3)cc2cc1C(=O)NCCOC(F)(F)F [Example 196, 6-methyl-2-({1-[4-(trifluoromethoxy)benzoyl]azetidin-3-yl}methyl)-N-[2-(trifluoromethoxy)ethyl]-2H-indazol-5-carboxamide]
9 | 63.2 | xxx (xxx > 100) | xxx (xxx > 100) | Cc1cc2nn(CC3CN(C(=O)c4ccc(Cl)cc4)C3)cc2cc1C(=O)NCCOC(F)(F)F [Example 197, 2-{[1-(4-chlorobenzoyl)azetidin-3-yl]methyl}-6-methyl-N-[2-(trifluoromethoxy)ethyl]-2H-indazol-5-carboxamide]
10 | 153 | xxx (xxx > 100) | xxx (xxx > 100) | Cc1cc2nn(CC3CN(C(=O)c4ccc(Cl)cc4)C3)cc2cc1C(=O)NCCOCC1CC1 [Example 198, 2-{[1-(4-chlorobenzoyl)azetidin-3-yl]methyl}-N-[2-(cyclopropylmethoxy)ethyl]-6-methyl-2H-indazol-5-carboxamide]
11 | 97.1 | xxx (xxx > 100) | xxx (xxx > 100) | Cc1cc2nn(CC3CN(C(=O)c4ccc(Oc5ccc(F)cc5)cc4)C3)cc2cc1C(=O)NCCSC(F)(F)F [Example 199, 2-({1-[4-(4-fluorophenoxy)benzoyl]azetidin-3-yl}methyl)-6-methyl-N-{2-[(trifluoromethyl)sulphanyl]ethyl}-2H-indazol-5-carboxamide]
12 | 15.1 | xxx (xxx > 100) | xxx (xxx > 100) | COCCNC(=O)c1cc2cn(CC3CN(C(=O)c4ccc(C5CC5)cc4)C3)nc2cc1C [Example 200, 2-{[1-(4-cyclopropylbenzoyl)azetidin-3-yl]methyl}-N-(2-methoxyethyl)-6-methyl-2H-indazol-5-carboxamide]

The next lines start with the compound.

Row | SMILES | IC50 [1] [nM] | Selectivity hEP2/hEP4 [2] | Selectivity hEP2/hDP [3]
13 | Cc1c(C(=O)NCC(F)(F)F)ccc2nn(CC3CN(C(=O)c4ccc(Oc5ccc(C(F)(F)F)cn5)cc4)C3)cc12 [Example 177, 4-methyl-N-(2,2,2-trifluoroethyl)-2-{[1-(4-{[5-(trifluoromethyl)pyridin-2-yl]oxy}benzoyl)azetidin-3-yl]methyl}-2H-indazol-5-carboxamide] | 118 | xxx (xxx > 100) | xxx (xxx > 100)
14 | COCCNC(=O)c1cc2cn(CC3CN(C(=O)c4ccc(Cl)cc4)C3)nc2cc1C [Example 178, 2-{[1-(4-chlorobenzoyl)azetidin-3-yl]methyl}-N-(2-methoxyethyl)-6-methyl-2H-indazol-5-carboxamide] | 68.3 | xxx (xxx > 100) | xxx (xxx > 100)
15 | COCCNC(=O)c1cc2cn(CC3CN(C(=O)c4cc(F)cc(F)c4)C3)nc2cc1C [Example 179, 2-{[1-(3,5-Difluorobenzoyl)azetidin-3-yl]methyl}-N-(2-methoxyethyl)-6-methyl-2H-indazol-5-carboxamide] | 2610 | x (x: 1-10) | x (x: 1-10)
16 | COCCNC(=O)c1cc2cn(CC3CN(C(=O)c4ccc(SC(F)(F)F)cc4)C3)nc2cc1C [Example 180, N-(2-methoxyethyl)-6-methyl-2-[(1-{4-[(trifluoromethyl)sulphanyl]benzoyl}azetidin-3-yl)methyl]-2H-indazol-5-carboxamide] | 17.3 | xxx (xxx > 100) | xxx (xxx > 100)
17 | COCCNC(=O)c1cc2cn(CC3CN(C(=O)c4ccc(OC(F)(F)F)cc4)C3)nc2cc1C [Example 181, N-(2-methoxyethyl)-6-methyl-2-({1-[4-(trifluoromethoxy)benzoyl]azetidin-3-yl}methyl)-2H-indazol-5-carboxamide] | 35.2 | xxx (xxx > 100) | xxx (xxx > 100)
18 | COCCNC(=O)c1cc2cn(CC3CN(C(=O)c4ccc(C(F)(F)F)cc4F)C3)nc2cc1C [Example 182, 2-({1-[2-fluoro-4-(trifluoromethyl)benzoyl]azetidin-3-yl}methyl)-N-(2-methoxy-ethyl)-6-methyl-2H-indazol-5-carboxamide] | 64.2 | xxx (xxx > 100) | xxx (xxx > 100)
19 | COCCNC(=O)c1cc2cn(CC3CN(C(=O)c4ccc(Cl)cc4F)C3)nc2cc1C [Example 183, 2-{[1-(4-chloro-2-fluorobenzoyl)azetidin-3-yl]methyl}-N-(2-methoxyethyl)-6-methyl-2H-indazol-5-carboxamide] | 46.6 | xxx (xxx > 100) | xxx (xxx > 100)
20 | COCCNC(=O)c1cc2cn(CC3CN(C(=O)c4ccc(C(F)(F)F)c(F)c4)C3)nc2cc1C [Example 184, 2-({1-[3-fluoro-4-(trifluoromethyl)benzoyl]azetidin-3-yl}methyl)-N-(2-methoxy-ethyl)-6-methyl-2H-indazol-5-carboxamide] | 76.8 | xxx (xxx > 100) | xxx (xxx > 100)
21 | COCCNC(=O)c1cc2cn(CC3CN(C(=O)c4ccc(Cl)c(C(F)(F)F)c4)C3)nc2cc1C [Example 185, 2-({1-[4-chloro-3-(trifluoromethyl)benzoyl]azetidin-3-yl}methyl)-N-(2-methoxy-ethyl)-6-methyl-2H-indazol-5-carboxamide] | 24.8 | xxx (xxx > 100) | xxx (xxx > 100)
